Laboratory results from ChEMBL document CHEMBL5291721, “A preclinical secondary pharmacology resource illuminates target-adverse drug reaction associations of marketed drugs” (Nat Commun, 2023).

Columns and labels:
[1] = target: T1, Muscarinic acetylcholine receptor M1 (Homo sapiens, UniProt P11229); format: functional
T1 sequence (P11229 whole entry): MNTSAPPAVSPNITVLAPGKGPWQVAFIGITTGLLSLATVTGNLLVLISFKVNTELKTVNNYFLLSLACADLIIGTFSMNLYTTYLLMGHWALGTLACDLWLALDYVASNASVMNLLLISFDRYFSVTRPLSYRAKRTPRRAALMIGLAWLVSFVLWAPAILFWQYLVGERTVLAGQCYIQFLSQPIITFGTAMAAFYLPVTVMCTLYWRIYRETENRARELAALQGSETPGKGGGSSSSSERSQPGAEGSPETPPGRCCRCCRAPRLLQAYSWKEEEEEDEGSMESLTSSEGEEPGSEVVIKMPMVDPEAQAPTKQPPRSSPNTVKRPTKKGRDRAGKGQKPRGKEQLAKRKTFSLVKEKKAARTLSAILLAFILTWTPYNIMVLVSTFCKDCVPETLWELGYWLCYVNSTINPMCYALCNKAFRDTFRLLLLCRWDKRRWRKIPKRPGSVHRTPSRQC

[2] = target: T2, 5-hydroxytryptamine receptor 2A (Homo sapiens, UniProt P28223); format: functional, cell-based
[3] = target: Muscarinic acetylcholine receptor M3 (Homo sapiens, UniProt P20309)
[4] = target: T2, 5-hydroxytryptamine receptor 2A; format: functional, cell-based; remark: listed apart in the source
Androgen receptor = target: T3, Androgen receptor (Homo sapiens, UniProt P10275)
T3 sequence (P10275 whole entry): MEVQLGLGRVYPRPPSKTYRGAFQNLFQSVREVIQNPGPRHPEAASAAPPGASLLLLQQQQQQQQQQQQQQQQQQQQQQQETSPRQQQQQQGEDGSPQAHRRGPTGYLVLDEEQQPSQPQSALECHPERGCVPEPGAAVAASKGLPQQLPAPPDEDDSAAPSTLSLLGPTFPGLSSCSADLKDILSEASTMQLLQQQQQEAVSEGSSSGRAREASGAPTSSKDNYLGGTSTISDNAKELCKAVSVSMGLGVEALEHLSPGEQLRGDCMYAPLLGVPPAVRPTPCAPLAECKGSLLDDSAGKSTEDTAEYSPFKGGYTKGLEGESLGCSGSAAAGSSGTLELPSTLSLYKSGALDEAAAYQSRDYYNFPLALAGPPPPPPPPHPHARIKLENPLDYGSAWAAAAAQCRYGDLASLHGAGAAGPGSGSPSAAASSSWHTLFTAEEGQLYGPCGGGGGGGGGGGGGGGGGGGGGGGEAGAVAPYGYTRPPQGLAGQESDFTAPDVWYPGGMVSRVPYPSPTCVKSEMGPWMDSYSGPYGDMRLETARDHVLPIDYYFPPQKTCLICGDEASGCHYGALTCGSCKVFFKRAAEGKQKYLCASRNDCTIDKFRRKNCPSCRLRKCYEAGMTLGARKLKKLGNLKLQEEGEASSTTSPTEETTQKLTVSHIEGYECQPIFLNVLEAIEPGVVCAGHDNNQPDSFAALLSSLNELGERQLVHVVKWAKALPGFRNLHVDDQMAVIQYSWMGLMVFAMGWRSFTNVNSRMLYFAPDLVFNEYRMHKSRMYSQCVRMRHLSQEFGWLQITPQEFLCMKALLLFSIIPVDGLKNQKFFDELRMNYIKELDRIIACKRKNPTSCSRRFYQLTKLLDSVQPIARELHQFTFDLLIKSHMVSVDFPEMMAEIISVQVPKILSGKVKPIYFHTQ

Glucocorticoid receptor = target: T4, Glucocorticoid receptor (Homo sapiens, UniProt P04150)
T4 sequence (P04150 whole entry): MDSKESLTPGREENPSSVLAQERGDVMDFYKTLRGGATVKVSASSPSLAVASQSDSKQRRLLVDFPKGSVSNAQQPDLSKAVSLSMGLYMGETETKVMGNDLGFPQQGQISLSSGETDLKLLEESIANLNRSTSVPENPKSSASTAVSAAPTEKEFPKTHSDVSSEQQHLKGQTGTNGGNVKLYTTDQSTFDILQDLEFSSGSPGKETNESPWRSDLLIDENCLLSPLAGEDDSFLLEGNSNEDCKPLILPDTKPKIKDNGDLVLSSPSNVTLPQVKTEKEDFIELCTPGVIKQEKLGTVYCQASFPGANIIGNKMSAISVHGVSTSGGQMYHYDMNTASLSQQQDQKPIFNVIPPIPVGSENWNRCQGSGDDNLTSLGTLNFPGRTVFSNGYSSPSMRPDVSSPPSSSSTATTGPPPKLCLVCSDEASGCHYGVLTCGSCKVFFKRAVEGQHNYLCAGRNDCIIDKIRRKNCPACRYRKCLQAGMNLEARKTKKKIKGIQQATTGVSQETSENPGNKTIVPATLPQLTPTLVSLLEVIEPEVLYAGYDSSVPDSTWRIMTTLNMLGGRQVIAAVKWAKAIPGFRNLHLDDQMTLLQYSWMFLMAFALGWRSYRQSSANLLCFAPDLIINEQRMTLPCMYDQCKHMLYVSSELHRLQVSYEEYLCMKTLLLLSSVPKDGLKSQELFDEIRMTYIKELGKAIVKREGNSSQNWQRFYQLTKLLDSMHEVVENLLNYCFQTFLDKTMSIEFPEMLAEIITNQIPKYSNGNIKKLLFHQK

[5] = target: 5-hydroxytryptamine receptor 2B (Homo sapiens, UniProt P41595)
Also: assay procedure not described here.

Sequence of 5-hydroxytryptamine receptor 2B (P41595 whole entry): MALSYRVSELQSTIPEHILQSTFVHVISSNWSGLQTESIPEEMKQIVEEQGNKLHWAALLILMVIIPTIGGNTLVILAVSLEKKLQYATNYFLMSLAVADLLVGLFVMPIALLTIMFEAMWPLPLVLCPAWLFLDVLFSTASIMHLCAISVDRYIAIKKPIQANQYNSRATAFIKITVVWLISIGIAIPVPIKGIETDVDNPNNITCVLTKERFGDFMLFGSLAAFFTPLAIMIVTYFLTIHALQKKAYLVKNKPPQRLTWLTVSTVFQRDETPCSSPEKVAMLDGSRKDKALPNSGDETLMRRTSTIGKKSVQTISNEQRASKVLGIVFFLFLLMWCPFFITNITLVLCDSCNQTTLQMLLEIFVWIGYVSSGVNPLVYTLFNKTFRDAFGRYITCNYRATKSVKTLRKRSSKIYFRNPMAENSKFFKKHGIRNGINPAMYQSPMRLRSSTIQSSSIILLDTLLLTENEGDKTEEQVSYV
Sequence of Muscarinic acetylcholine receptor M3 (P20309 whole entry): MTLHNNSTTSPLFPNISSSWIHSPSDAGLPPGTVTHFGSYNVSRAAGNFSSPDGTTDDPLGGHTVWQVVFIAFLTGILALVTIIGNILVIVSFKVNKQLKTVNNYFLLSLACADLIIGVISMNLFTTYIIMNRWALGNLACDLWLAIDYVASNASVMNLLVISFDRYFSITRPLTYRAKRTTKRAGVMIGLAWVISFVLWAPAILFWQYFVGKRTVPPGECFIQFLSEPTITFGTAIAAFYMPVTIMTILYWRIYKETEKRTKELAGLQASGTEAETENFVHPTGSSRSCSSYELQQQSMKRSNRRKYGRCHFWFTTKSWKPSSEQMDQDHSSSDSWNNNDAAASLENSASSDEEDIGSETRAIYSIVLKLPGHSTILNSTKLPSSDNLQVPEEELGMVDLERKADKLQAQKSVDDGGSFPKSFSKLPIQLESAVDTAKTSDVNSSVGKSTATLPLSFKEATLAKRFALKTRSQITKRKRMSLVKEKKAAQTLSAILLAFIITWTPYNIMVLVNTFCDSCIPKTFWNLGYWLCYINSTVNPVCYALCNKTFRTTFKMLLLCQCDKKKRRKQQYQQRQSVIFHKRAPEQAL
T2 sequence (P28223 whole entry): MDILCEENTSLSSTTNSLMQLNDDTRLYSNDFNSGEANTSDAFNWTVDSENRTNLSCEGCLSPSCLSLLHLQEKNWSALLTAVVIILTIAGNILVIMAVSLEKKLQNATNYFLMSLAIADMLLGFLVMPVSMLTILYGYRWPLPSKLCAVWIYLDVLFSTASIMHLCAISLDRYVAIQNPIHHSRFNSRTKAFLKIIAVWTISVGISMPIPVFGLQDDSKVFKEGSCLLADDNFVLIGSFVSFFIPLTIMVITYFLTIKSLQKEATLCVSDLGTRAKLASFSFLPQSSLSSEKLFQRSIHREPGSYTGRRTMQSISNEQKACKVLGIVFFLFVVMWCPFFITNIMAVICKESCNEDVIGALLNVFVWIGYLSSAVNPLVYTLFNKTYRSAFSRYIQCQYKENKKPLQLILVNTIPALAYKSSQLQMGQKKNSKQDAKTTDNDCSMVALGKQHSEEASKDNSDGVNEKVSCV

Row | AC50 [1] | AC50 [3] | AC50 (Glucocorticoid receptor) | Structure (SMILES) | AC50 [2] | AC50 [4] | AC50 (Androgen receptor) | also measured
1 |  |  |  | CC[C@H](C)C[C@H](C)CCCCCCCCC(=O)N[C@H]1C[C@@H](O)[C@@H](NCCN)NC(=O)[C@@H]2[C@@H](O)CCN2C(=O)[C@H]([C@H](O)CCN)NC(=O)[C@H]([C@H](O)[C@@H](O)c2ccc(O)cc2)NC(=O)[C@@H]2C[C@@H](O)CN2C(=O)[C@H]([C@@H](C)O)NC1=O [CASPOFUNGIN] |  |  | > 30 µM | 
2 |  |  |  | CN1CCC(=C2c3ccccc3Sc3ccccc32)CC1 [PIMETHIXENE] |  |  | > 30 µM | 
3 |  |  | > 10 µM | O=C1C(CC[S+]([O-])c2ccccc2)C(=O)N(c2ccccc2)N1c1ccccc1 (stereo not given) [SULFINPYRAZONE] |  |  |  | 
4 |  |  |  | C/C=C/C/C=C/CCC(=O)[C@H]1O[C@H]1C(N)=O [CERULENIN] |  |  | > 30 µM | 
5 |  |  |  | CC[C@H](c1ccc(O)cc1)[C@@H](CC)c1ccc(O)cc1 [HEXESTROL] |  |  | 6.95 µM | 
6 |  |  | > 10 µM | CC(N)C12CC3CC(CC(C3)C1)C2 (stereo not given) [RIMANTADINE] |  |  |  | 
7 |  |  | > 30 µM | CN(C)CCC[C@@]1(c2ccc(F)cc2)OCc2cc(C#N)ccc21 [ESCITALOPRAM] |  |  |  | 
8 |  |  |  | FC(F)(F)c1ccc(CNc2ccc(Cc3c[nH]c4ncc(Cl)cc34)cn2)cn1 [PEXIDARTINIB] |  |  | > 30 µM | 
9 |  |  |  | CCc1nc(C(N)=O)c(Nc2ccc(N3CCC(N4CCN(C)CC4)CC3)c(OC)c2)nc1NC1CCOCC1 [GILTERITINIB] |  |  | > 30 µM | 
10 |  |  |  | CC(C)C[C@H](NC(=O)CNC(=O)c1cc(Cl)ccc1Cl)B(O)O [IXAZOMIB] |  |  | > 30 µM | 
11 |  |  |  | N#Cc1ccc2c(c1)N(CCCN1CCC(O)CC1)c1ccccc1S2 [PERICIAZINE] |  |  | > 30 µM | 
12 |  |  |  | O=C(O)c1cc(/N=N/c2ccc(O)c(C(=O)O)c2)ccc1O [OLSALAZINE] |  |  | > 30 µM | 
13 |  |  |  | CC(C)(O)CNc1nc(Nc2ccnc(C(F)(F)F)c2)nc(-c2cccc(C(F)(F)F)n2)n1 [ENASIDENIB] |  |  | > 30 µM | 
14 |  |  |  | O=C(O)COc1ccc(C(=O)c2cccs2)c(Cl)c1Cl |  |  | > 30 µM | 
15 | > 30 µM | > 30 µM | > 30 µM | CC(C)c1nc(N(C)S(C)(=O)=O)nc(-c2ccc(F)cc2)c1/C=C/[C@@H](O)C[C@@H](O)CC(=O)O [ROSUVASTATIN] | > 30 µM | > 30 µM |  | 
16 |  |  | > 30 µM | CN(C)CC[C@@H](c1ccc(Cl)cc1)c1ccccn1 [DEXCHLORPHENIRAMINE] |  |  |  | 

Row | AC50 [1] | AC50 [3] | AC50 (Glucocorticoid receptor) | Structure (SMILES) | AC50 [2] | AC50 [4] | AC50 (Androgen receptor) | also measured
17 |  |  |  | CC(CN1CC(=O)NC(=O)C1)N1CC(=O)NC(=O)C1 (stereo not given) [RAZOXANE] |  |  | > 30 µM | 
18 | > 30 µM | > 30 µM |  | CC(S)C(=O)NCC(=O)O (stereo not given) [TIOPRONIN] | > 30 µM | > 30 µM |  | 
19 |  |  |  | CCOC(=O)c1c(C)cc2c(CO)n[nH]c(=O)c2c1C [OXAGRELATE] |  |  | > 30 µM | 
20 |  |  |  | OC[C@H]1O[C@@H](c2ccc(F)c(Cc3cc4ccccc4s3)c2)[C@H](O)[C@@H](O)[C@@H]1O [IPRAGLIFLOZIN] |  |  | > 30 µM | 
21 |  |  |  | OC[C@H]1O[C@@H](c2ccc(Cl)c(Cc3ccc(O[C@H]4CCOC4)cc3)c2)[C@H](O)[C@@H](O)[C@@H]1O [EMPAGLIFLOZIN] |  |  | > 30 µM | 
22 | > 10 µM | > 30 µM | > 30 µM | CC(C(=O)O)c1ccc2c(c1)[nH]c1ccc(Cl)cc12 (stereo not given) [CARPROFEN] | > 10 µM | > 10 µM |  | 
23 |  |  |  | CC(C)OC(=O)CCC/C=C\C[C@@H]1[C@@H](/C=C/C(F)(F)COc2ccccc2)[C@H](O)C[C@@H]1O [TAFLUPROST] |  |  | > 30 µM | 
24 | > 30 µM | > 30 µM | > 30 µM | COc1ccc(CC2c3cc(OC)c(OC)cc3CC[N+]2(C)CCC(=O)OCCCCCOC(=O)CC[N+]2(C)CCc3cc(OC)c(OC)cc3C2Cc2ccc(OC)c(OC)c2)cc1OC (stereo not given) | > 30 µM | > 30 µM |  | 
25 | > 30 µM | > 30 µM |  | C[C@@H](Oc1cc(-c2cnn(C3CCNCC3)c2)cnc1N)c1c(Cl)ccc(F)c1Cl [CRIZOTINIB] |  |  |  | AC50 [5]: 0.316 µM
26 | > 10 µM | > 30 µM | > 10 µM | O=C1CN(/N=C/c2ccc(-c3ccc([N+](=O)[O-])cc3)o2)C(O)=N1 [DANTROLENE] | > 10 µM | > 10 µM |  | 
27 | > 10 µM | > 30 µM |  | C=C[C@H]1C[N@@]2CC[C@H]1C[C@@H]2[C@@H](O)c1ccnc2ccc(OC)cc12 [QUINIDINE] |  |  |  | AC50 [5]: 2 µM
28 |  |  | > 30 µM | CCN(CC)CCNC(=O)c1c(C)[nH]c(/C=C2\C(=O)Nc3ccc(F)cc32)c1C [SUNITINIB] |  |  |  | AC50 [5]: 0.158 µM
29 |  |  |  | C[C@@H]1C[C@H]2[C@@H]3CCC4=CC(=O)C=C[C@]4(C)[C@@]3(Cl)[C@@H](O)C[C@]2(C)[C@@]1(OC(=O)c1ccco1)C(=O)CCl [MOMETASONE FUROATE] |  |  | 0.0337 µM | 
30 |  |  | > 30 µM | O=C1CCc2cc(OCCCCc3nnnn3C3CCCCC3)ccc2N1 [CILOSTAZOL] |  |  |  | 
31 | 17 µM | 14 µM | > 30 µM | C[C@@H](NCCCc1cccc(C(F)(F)F)c1)c1cccc2ccccc12 | > 30 µM | > 30 µM |  | 

Row | Structure (SMILES) | AC50 [1] | AC50 [3] | AC50 (Glucocorticoid receptor) | AC50 [2] | AC50 [4] | AC50 (Androgen receptor) | also measured
32 | CN(CC1(C)CCCO1)S(=O)(=O)c1ccc(Cl)c(S(N)(=O)=O)c1 (stereo not given) [MEFRUSIDE] | > 30 µM | > 30 µM |  | > 30 µM | > 30 µM |  | 
33 | C[C@H](CCC(=O)O)[C@H]1CC[C@H]2[C@@H]3[C@@H](O)C[C@@H]4C[C@H](O)CC[C@]4(C)[C@H]3CC[C@]12C [URSODIOL] | > 30 µM | > 30 µM |  | > 30 µM | > 30 µM |  | 
34 | C#C[C@]1(O)CC[C@H]2[C@@H]3CCC4=CC(=O)CC[C@@H]4[C@H]3C(=C)C[C@@]21CC [ETONOGESTREL] | > 30 µM | > 30 µM |  | > 30 µM | > 30 µM |  | 
35 | C[C@]12C=CC(=O)N[C@@H]1CC[C@@H]1[C@@H]2CC[C@]2(C)[C@@H](C(=O)Nc3cc(C(F)(F)F)ccc3C(F)(F)F)CC[C@@H]12 [DUTASTERIDE] | > 10 µM | > 30 µM | > 10 µM | > 10 µM | > 10 µM |  | 
36 | CCN1CCN(Cc2ccc(Nc3ncc(F)c(-c4cc(F)c5nc(C)n(C(C)C)c5c4)n3)nc2)CC1 [ABEMACICLIB] | > 30 µM | > 30 µM |  | 28 µM | > 30 µM |  | 
37 | CN1C(C(=O)Nc2ccccn2)=C(O)c2ccccc2S1(=O)=O [PIROXICAM] |  |  | > 10 µM |  |  |  | 
38 | COc1cc2nccc(Oc3ccc(NC(=O)C4(C(=O)Nc5ccc(F)cc5)CC4)cc3)c2cc1OC [CABOZANTINIB] | > 30 µM | > 30 µM |  | 2.9 µM | > 30 µM | > 30 µM | 
39 | OC[C@H]1O[C@@](CO)(O[C@H]2O[C@H](CO)[C@@H](O)[C@H](O)[C@H]2O)[C@@H](O)[C@@H]1O [SUCROSE] | > 30 µM | > 30 µM |  | > 30 µM | > 30 µM |  | 
